Laboratory results from patent publication US9464084B2, “P2X7 modulators” (Janssen Pharmaceutica NV, priority 2013, dated 2016).

These molecules were tested against P2X7 (Homo sapiens (Human), UniProt Q99572) (assay: P2X7 antagonism in human PBMCs (LPS + Bz-ATP induced IL-1β release, ELISA)). Conditions: compound 1 μM, LPS 30 ng/ml, Bz-ATP 0.5 mM.
Type: cell-based
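Note: PBMCs from donor human blood, with a further 1.5 h incubation of the cells in the assay.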

Sequence of P2X7 (Q99572 whole entry): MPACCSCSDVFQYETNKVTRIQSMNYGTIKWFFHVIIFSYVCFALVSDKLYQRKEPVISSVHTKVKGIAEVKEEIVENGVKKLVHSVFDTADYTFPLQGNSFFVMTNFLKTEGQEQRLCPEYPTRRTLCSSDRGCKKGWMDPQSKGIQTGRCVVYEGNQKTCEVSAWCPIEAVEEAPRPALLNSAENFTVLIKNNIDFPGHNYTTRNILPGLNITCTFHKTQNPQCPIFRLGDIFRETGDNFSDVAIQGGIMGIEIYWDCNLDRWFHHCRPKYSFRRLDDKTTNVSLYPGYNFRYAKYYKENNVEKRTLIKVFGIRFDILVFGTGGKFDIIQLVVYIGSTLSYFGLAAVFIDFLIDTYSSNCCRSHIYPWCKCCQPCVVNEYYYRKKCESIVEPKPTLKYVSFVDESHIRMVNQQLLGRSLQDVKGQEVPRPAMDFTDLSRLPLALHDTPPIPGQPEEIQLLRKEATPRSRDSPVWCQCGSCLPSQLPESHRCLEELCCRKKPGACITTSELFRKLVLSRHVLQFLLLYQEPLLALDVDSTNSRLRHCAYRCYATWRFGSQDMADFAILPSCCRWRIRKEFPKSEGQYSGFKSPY

SMILES	PBMC 1 μM (% control)
C[C@@H]1c2nnn(-c3cnccn3)c2CCN1C(=O)c1cccc(C(F)(F)F)c1Cl (single isomer, unassigned) [Example 74, (4R*)-5-{[2-Chloro-3-(trifluoromethyl)phenyl]carbonyl}-4-methyl-1-pyrazin-2-yl-4,5,6,7-tetrahydro-1H-[1,2,3]triazolo[4,5-c]pyridine]	102.6 % control
C[C@H]1c2nnn(-c3cnccn3)c2CCN1C(=O)c1cccc(C(F)(F)F)c1Cl (single isomer, unassigned) [Example 75, (4 S*)-5-{[2-Chloro-3-(trifluoromethyl)phenyl]carbonyl}-4-methyl-1-pyrazin-2-yl-4,5,6,7-tetrahydro-1H-[1,2,3]triazolo[4,5-c]pyridine]	5.2 % control

Same assay, conditions: compound 10 μM, LPS 30 ng/ml, Bz-ATP 0.5 mM

SMILES	PBMC 10 μM (% control)
C[C@@H]1c2ncn(-c3ccc(F)cn3)c2CCN1C(=O)c1cccc(C(F)(F)F)c1Cl (single isomer, unassigned) [Example 40, (R*)-(2-chloro-3-(trifluoromethyl)phenyl)(1-(5-fluoropyridin-2-yl)-4-methyl-6,7-dihydro-1H-imidazo[4,5-c]pyridin-5(4H)-yl)methanone]	36.5 % control
C[C@@H]1c2ncn(-c3ccccn3)c2CCN1C(=O)c1cccc(C(F)(F)F)c1F (single isomer, unassigned) [Example 42, (4R*)-5-{[2-Fluoro-3-(trifluoromethyl)phenyl]carbonyl}-4-methyl-1-pyridin-2-yl-4,5,6,7-tetrahydro-1H-imidazo[4,5-c]pyridine]	5.8 % control
C[C@H]1c2ncn(-c3ccccn3)c2CCN1C(=O)c1cccc(C(F)(F)F)c1F (single isomer, unassigned) [Example 43, (4 S*)-5-{[2-Fluoro-3-(trifluoromethyl)phenyl]carbonyl}-4-methyl-1-pyridin-2-yl-4,5,6,7-tetrahydro-1H-imidazo[4,5-c]pyridine]	77.8 % control
C[C@@H]1c2ncn(-c3ccccn3)c2CCN1C(=O)c1cccc(C(F)(F)F)c1Cl (single isomer, unassigned) [Example 44, (4R*)-5-{[2-Chloro-3-(trifluoromethyl)phenyl]carbonyl}-4-methyl-1-pyridin-2-yl-4,5,6,7-tetrahydro-1H-imidazo[4,5-c]pyridine]	44.7 % control
C[C@H]1c2ncn(-c3ccccn3)c2CCN1C(=O)c1cccc(C(F)(F)F)c1Cl (single isomer, unassigned) [Example 45, (4 S*)-5-{[2-Chloro-3-(trifluoromethyl)phenyl]carbonyl}-4-methyl-1-pyridin-2-yl-4,5,6,7-tetrahydro-1H-imidazo[4,5-c]pyridine]	29.4 % control
C[C@@H]1c2ncn(-c3ccc(F)cc3)c2CCN1C(=O)c1cccc(C(F)(F)F)c1Cl (single isomer, unassigned) [Example 46, (4R*)-5-{[2-Chloro-3-(trifluoromethyl)phenyl]carbonyl}-1-(4-fluorophenyl)-4-methyl-4,5,6,7-tetrahydro-1H-imidazo[4,5-c]pyridine]	2.1 % control
C[C@H]1c2ncn(-c3ccc(F)cc3)c2CCN1C(=O)c1cccc(C(F)(F)F)c1Cl (single isomer, unassigned) [Example 47]	−1.1 % control
C[C@H]1c2nnn(-c3cnccn3)c2CCN1C(=O)c1cccc(C(F)(F)F)c1Cl (single isomer, unassigned) [Example 75, (4 S*)-5-{[2-Chloro-3-(trifluoromethyl)phenyl]carbonyl}-4-methyl-1-pyrazin-2-yl-4,5,6,7-tetrahydro-1H-[1,2,3]triazolo[4,5-c]pyridine]	−0.3 % control
C[C@H]1c2nnn(-c3ncccn3)c2CCN1C(=O)c1cccc(C(F)(F)F)c1Cl (single isomer, unassigned) [Example 87, (4S*)-5-{[2-Chloro-3-(trifluoromethyl)phenyl]carbonyl}-4-methyl-1-pyrimidin-2-yl-4,5,6,7-tetrahydro-1H-[1,2,3]triazolo[4,5-c]pyridine]	21.7 % control
CC1c2nnn(-c3ncccn3)c2CCN1C(=O)c1cccc(C(F)(F)F)c1Cl (single isomer, unassigned) [Example 88, (4R*)-5-{[2-Chloro-3-(trifluoromethyl)phenyl]carbonyl}-4-methyl-1-pyrimidin-2-yl-4,5,6,7-tetrahydro-1H-[1,2,3]triazolo[4,5-c]pyridine]	13.3 % control
